# Data published in patent US9592221B2, “Antibacterial agents: aryl myxopyronin derivatives” (priority 2012, dated 2017).
# Columns and labels:
# [1] = target: E. coli RNA polymerase σ^70 holoenzyme (Escherichia coli, UniProt P0A8T7+P0A8V2); test: Fluorescence-detected RNA polymerase assay, E. coli RNA polymerase; assay type: biochemical; conditions: read-out: IC50 E. coli RNAP
# [2] = system: Burkholderia pseudomallei Human/Blood/OH/US/1994; test: microbe, parasite or virus in culture; assay type: cell-based; conditions: Burkholderia pseudomallei, read-out: MIC B. pseudomallei Human/Blood/OH
# [3] = system: Staphylococcus aureus ATCC 12600; test: MIC, spiral gradient endpoint assay, S. aureus ATCC 12600; assay type: cell-based; conditions: ATCC12600; Staphylococcus aureus ATCC 12600
# [4] = system: Francisella tularensis SCHU4; test: microbe, parasite or virus in culture; assay type: cell-based; conditions: Francisella tularensis, SCHU4, read-out: MIC F. tularensis SCHU4
# [5] = system: Mycobacterium tuberculosis H37Rv; test: MIC, microplate Alamar Blue assay, M. tuberculosis; assay type: cell-based
# Brucella melitensis 16M = test: microbe, parasite or virus in culture; assay type: cell-based; conditions: Brucella melitensis, 16M, read-out: MIC B. melitensis 16M
# Burkholderia mallei CHN7 = test: microbe, parasite or virus in culture; assay type: cell-based; conditions: Burkholderia mallei, CHN7, read-out: MIC B. mallei CHN7
# [6] = system: Bacillus anthracis Vollum 1b; test: microbe, parasite or virus in culture; assay type: cell-based; conditions: Bacillus anthracis, VOLLUM1B, read-out: MIC B. anthracis Vollum-1b
# Yersinia pestis C092 = test: microbe, parasite or virus in culture; assay type: cell-based; conditions: Yersinia pestis, C092, read-out: MIC Y. pestis C092
# [7] = system: Acinetobacter baumannii ATCC 19606; test: MIC, spiral gradient endpoint assay, A. baumannii; assay type: cell-based; conditions: ATCC19606; Acinetobacter baumannii ATCC 19606
# [8] = system: Escherichia coli D21f2tolC; test: MIC, spiral gradient endpoint assay, E. coli D21f2tolC; assay type: cell-based; conditions: Escherichia coli, D21F2TOLC, read-out: MIC E. coli D21f2toIC
# E. coli RNA polymerase σ^70 holoenzyme, sequence (P0A8T7 whole entry): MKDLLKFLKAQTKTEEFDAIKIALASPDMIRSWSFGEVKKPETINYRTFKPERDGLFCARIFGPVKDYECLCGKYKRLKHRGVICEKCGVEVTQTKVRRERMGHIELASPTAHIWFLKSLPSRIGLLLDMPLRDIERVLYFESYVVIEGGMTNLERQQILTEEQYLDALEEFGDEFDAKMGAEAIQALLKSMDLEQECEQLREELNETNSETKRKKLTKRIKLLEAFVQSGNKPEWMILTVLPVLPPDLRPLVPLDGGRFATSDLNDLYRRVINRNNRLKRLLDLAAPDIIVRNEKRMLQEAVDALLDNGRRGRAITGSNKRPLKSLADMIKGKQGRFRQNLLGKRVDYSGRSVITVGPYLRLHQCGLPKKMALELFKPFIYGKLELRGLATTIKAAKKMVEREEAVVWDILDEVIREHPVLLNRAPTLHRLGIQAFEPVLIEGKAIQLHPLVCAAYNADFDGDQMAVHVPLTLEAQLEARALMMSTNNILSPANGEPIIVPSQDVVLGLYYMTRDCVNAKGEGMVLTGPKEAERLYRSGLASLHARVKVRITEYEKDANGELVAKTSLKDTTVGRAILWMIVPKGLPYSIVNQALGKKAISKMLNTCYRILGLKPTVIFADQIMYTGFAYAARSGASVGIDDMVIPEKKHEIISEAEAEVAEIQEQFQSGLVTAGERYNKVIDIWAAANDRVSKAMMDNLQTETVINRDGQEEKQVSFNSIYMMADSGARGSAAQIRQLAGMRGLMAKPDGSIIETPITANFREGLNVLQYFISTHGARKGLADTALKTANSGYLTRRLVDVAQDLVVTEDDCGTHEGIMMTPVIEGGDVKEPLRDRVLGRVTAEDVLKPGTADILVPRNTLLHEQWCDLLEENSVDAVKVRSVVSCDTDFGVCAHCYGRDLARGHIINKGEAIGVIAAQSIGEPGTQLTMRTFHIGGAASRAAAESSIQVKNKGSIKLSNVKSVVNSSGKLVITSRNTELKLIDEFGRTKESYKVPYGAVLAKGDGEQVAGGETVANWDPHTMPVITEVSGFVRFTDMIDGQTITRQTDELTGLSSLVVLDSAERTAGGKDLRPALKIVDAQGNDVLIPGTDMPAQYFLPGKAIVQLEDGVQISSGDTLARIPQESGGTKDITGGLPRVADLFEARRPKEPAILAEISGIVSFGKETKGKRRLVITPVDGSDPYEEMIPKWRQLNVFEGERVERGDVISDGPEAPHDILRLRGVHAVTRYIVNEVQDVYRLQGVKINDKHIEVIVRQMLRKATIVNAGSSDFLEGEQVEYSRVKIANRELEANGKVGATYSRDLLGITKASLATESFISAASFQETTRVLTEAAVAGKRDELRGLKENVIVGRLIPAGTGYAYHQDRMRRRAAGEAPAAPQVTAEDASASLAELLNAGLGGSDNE
# E. coli RNA polymerase σ^70 holoenzyme, sequence (P0A800 whole entry, further chain): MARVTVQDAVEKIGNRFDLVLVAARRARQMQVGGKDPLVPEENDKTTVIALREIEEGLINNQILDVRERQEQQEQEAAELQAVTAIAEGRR
# E. coli RNA polymerase σ^70 holoenzyme, sequence (P0A8V2 whole entry): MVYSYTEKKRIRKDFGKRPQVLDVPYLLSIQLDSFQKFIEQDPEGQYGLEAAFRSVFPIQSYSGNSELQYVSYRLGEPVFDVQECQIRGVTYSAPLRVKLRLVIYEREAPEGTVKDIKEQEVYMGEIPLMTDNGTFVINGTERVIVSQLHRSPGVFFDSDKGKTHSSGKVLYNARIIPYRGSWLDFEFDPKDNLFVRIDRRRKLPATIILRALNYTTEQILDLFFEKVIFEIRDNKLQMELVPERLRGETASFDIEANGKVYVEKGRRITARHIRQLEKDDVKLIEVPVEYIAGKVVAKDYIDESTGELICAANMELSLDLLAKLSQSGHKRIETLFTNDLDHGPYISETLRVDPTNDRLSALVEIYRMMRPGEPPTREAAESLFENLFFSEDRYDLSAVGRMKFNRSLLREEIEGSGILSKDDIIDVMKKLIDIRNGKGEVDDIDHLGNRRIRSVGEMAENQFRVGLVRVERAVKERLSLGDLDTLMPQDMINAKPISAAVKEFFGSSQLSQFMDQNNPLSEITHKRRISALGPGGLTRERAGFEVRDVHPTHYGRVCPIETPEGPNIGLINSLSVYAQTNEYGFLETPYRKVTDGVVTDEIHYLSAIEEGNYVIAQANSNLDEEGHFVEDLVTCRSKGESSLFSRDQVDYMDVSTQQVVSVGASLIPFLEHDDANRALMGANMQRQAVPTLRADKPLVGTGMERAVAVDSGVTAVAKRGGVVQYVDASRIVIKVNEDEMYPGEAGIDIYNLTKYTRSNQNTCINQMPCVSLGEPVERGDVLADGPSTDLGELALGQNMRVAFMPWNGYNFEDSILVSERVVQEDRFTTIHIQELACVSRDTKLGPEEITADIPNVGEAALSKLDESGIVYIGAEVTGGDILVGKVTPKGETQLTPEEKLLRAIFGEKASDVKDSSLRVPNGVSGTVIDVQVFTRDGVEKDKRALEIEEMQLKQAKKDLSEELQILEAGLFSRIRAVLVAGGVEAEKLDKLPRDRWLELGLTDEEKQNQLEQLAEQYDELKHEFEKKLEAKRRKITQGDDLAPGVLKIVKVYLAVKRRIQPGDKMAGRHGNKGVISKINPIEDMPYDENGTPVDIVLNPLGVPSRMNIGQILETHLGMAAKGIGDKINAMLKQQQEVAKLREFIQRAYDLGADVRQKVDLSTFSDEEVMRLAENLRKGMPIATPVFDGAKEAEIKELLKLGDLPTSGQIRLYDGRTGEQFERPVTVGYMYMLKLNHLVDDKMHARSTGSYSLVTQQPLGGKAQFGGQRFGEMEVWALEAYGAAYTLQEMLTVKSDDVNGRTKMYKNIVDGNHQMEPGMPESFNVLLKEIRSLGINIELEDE
# E. coli RNA polymerase σ^70 holoenzyme, sequence (P00579 whole entry, further chain): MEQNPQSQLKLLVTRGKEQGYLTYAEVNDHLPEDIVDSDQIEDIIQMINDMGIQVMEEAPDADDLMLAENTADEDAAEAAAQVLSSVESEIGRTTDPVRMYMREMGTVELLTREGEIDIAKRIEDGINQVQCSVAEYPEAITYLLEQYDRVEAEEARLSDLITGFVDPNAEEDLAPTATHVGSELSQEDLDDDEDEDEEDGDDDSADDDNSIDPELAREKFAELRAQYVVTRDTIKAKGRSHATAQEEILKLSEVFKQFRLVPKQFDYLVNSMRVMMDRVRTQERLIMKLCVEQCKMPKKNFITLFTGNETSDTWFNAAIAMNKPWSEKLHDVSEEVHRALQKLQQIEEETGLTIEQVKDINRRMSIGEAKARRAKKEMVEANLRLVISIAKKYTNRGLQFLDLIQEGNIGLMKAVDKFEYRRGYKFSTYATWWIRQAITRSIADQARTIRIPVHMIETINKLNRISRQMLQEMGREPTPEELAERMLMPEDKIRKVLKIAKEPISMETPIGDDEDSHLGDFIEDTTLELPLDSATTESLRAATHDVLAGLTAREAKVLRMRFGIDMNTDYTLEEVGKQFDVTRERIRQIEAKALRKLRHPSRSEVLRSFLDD
# E. coli RNA polymerase σ^70 holoenzyme, sequence (P0A7Z4 whole entry, further chain): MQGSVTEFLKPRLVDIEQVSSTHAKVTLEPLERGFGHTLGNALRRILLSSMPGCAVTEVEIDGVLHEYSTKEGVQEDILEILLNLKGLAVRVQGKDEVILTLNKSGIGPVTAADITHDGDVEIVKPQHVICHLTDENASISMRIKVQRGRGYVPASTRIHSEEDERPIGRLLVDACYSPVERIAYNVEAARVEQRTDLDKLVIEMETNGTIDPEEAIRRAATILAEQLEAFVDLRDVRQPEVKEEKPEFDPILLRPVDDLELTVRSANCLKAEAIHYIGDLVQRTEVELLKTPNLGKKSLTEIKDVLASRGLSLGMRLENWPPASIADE
Structure (SMILES),IC50 [1],MIC [2],MIC [3],MIC [4],MIC [5],MIC (Brucella melitensis 16M),MIC (Burkholderia mallei CHN7),MIC [6],MIC (Yersinia pestis C092),MIC [7],MIC [8]
"CCCCOc1cccc(C=C(C)C(=O)c2c(O)cc(C(C)CC/C=C/NC(=O)OC)oc2=O)c1 (mixture of isomers) [APY42, methyl (E)-5-(3-((E/Z)-3-(3-butoxyphenyl)-2-methylacryloyl)-4-hydroxy-2-oxo-2H-pyran-6-yl)hex-1-enylcarbamate]",30 nM,50 µg/mL,> 40 µg/mL,50 µg/mL,30 µg/mL,6 µg/mL,50 µg/mL,10 µg/mL,> 50 µg/mL,> 40 µg/mL,0.4 µg/mL
"CCCCOc1ccc(C=C(C)C(=O)c2c(O)cc(C(C)CC/C=C/NC(=O)OC)oc2=O)c(C)c1 (mixture of isomers) [APY129, methyl ((1E)-5-(3-(3-(4-butoxy-2-methylphenyl)-2-methylacryloyl)-4-hydroxy-2-oxo-2H-pyran-6-yl)hex-1-en-1-yl)carbamate]",50 nM,> 50 µg/mL,2 µg/mL,> 50 µg/mL,30 µg/mL,10 µg/mL,50 µg/mL,3 µg/mL,30 µg/mL,40 µg/mL,0.3 µg/mL
"COC(=O)N/C=C/CCC(C)c1cc(O)c(C(=O)C(C)=Cc2ccc(OCC(F)F)cc2)c(=O)o1 (mixture of isomers) [APY132, methyl ((1E)-5-(3-(3-(4-(2,2-difluoroethoxy)phenyl)-2-methylacryloyl)-4-hydroxy-2-oxo-2H-pyran-6-yl)hex-1-en-1-yl)carbamate]",200 nM,> 50 µg/mL,5 µg/mL,> 50 µg/mL,10 µg/mL,30 µg/mL,> 50 µg/mL,30 µg/mL,> 50 µg/mL,> 40 µg/mL,0.7 µg/mL
"COC(=O)N/C=C/CCC(C)c1cc(O)c(C(=O)C(C)=Cc2ccc(CCC(F)(F)F)cc2C)c(=O)o1 (mixture of isomers) [APY127, methyl ((1E)-5-(4-hydroxy-3-(2-methyl-3-(2-methyl-4-(3,3,3-trifluoropropyl)phenyl)acryloyl)-2-oxo-2H-pyran-6-yl)hex-1-en-1-yl)carbamate]",70 nM,50 µg/mL,2 µg/mL,> 50 µg/mL,50 µg/mL,50 µg/mL,50 µg/mL,6 µg/mL,50 µg/mL,> 40 µg/mL,0.4 µg/mL
"COC(=O)N/C=C/CCC(C)c1cc(O)c(C(=O)C(C)=Cc2ccc(OCC(F)F)s2)c(=O)o1 (mixture of isomers) [APY138, methyl ((1E)-5-(3-(3-(5-(2,2-difluoroethoxy)thiophen-2-yl)-2-methylacryloyl)-4-hydroxy-2-oxo-2H-pyran-6-yl)hex-1-en-1-yl)carbamate]",300 nM,> 50 µg/mL,10 µg/mL,> 50 µg/mL,10 µg/mL,50 µg/mL,> 50 µg/mL,50 µg/mL,50 µg/mL,> 40 µg/mL,0.5 µg/mL
"COC(=O)N/C=C/CCC(C)c1cc(O)c(C(=O)C(C)=Cc2ccc(CC3CC3)s2)c(=O)o1 (mixture of isomers) [APY125, methyl ((1E)-5-(3-(3-(5-(cyclopropylmethyl)thiophen-2-yl)-2-methylacryloyl)-4-hydroxy-2-oxo-2H-pyran-6-yl)hex-1-en-1-yl)carbamate]",40 nM,50 µg/mL,1 µg/mL,> 50 µg/mL,10 µg/mL,6 µg/mL,10 µg/mL,6 µg/mL,6 µg/mL,20 µg/mL,0.6 µg/mL
"CCCCc1ccc(C=CC(=O)c2c(O)cc(C(C)CC/C=C/NC(=O)OC)oc2=O)s1 (mixture of isomers) [APY36, methyl (E)-5-(3-((E/Z)-3-(5-butylthiophen-2-yl)acryloyl)-4-hydroxy-2-oxo-2H-pyran-6-yl)hex-1-enylcarbamate]",300 nM,> 50 µg/mL,> 40 µg/mL,6 µg/mL,30 µg/mL,> 50 µg/mL,> 50 µg/mL,6 µg/mL,> 50 µg/mL,> 40 µg/mL,0.7 µg/mL
"CCCCCCc1ccc(C=C(C)C(=O)c2c(O)cc(C(C)CC/C=C/NC(=O)OC)oc2=O)cn1 (mixture of isomers) [APY37, methyl (E)-5-(3-((E/Z)-3-(6-hexylpyridin-3-yl)-2-methylacryloyl)-4-hydroxy-2-oxo-2H-pyran-6-yl)hex-1-enylcarbamate]",90 nM,> 50 µg/mL,> 40 µg/mL,50 µg/mL,> 50 µg/mL,10 µg/mL,50 µg/mL,50 µg/mL,> 50 µg/mL,> 40 µg/mL,0.6 µg/mL
"CCc1ccc(C=C(C)C(=O)c2c(O)cc(C(C)CC/C=C/NC(=O)OC)oc2=O)cc1 (mixture of isomers) [APY70, methyl (E)-5-(5-((E/Z)-3-(4-ethylphenyl)-2-methylacryloyl)-4-hydroxy-6-oxo-6H-pyran-2-yl)hex-1-enylcarbamate]",> 6000 nM,> 50 µg/mL,20 µg/mL,> 50 µg/mL,30 µg/mL,30 µg/mL,> 50 µg/mL,50 µg/mL,–,> 40 µg/mL,1 µg/mL
"CCCCc1ccc(C=C(C)C(=O)c2c(O)cc(C(C)CCCCNC(=O)OC)oc2=O)s1 (mixture of isomers) [APY67, methyl 5-(5-((E/Z)-3-(5-butylthiophen-2-yl)-2-methylacryloyl)-4-hydroxy-6-oxo-6H-pyran-2-yl)hexylcarbamate]",1000 nM,> 50 µg/mL,5 µg/mL,50 µg/mL,50 µg/mL,10 µg/mL,> 50 µg/mL,30 µg/mL,–,> 40 µg/mL,0.5 µg/mL
"COC(=O)N/C=C/CCC(C)c1cc(O)c(C(=O)C(C)=Cc2ccc(OCC(C)(C)C)cc2)c(=O)o1 (mixture of isomers) [APY55, methyl (E)-5-(4-hydroxy-3-((E/Z)-2-methyl-3-(4-(neopentyloxy)phenyl)acryloyl)-2-oxo-2H-pyran-6-yl)hex-1-enylcarbamate]",40 nM,> 50 µg/mL,10 µg/mL,30 µg/mL,10 µg/mL,30 µg/mL,50 µg/mL,2 µg/mL,–,> 40 µg/mL,0.7 µg/mL
"COC(=O)N/C=C/CCC(C)c1cc(O)c(C(=O)C(C)=Cc2ccc(CCC(F)(F)F)cc2)c(=O)o1 (mixture of isomers) [APY74, methyl (E)-5-(5-((E/Z)-3-(4-(3,3,3-trifluoropropyl)phenyl)-2-methylacryloyl)-4-hydroxy-6-oxo-6H-pyran-2-yl)hex-1-enylcarbamate]",40 nM,> 50 µg/mL,2 µg/mL,50 µg/mL,10 µg/mL,10 µg/mL,> 50 µg/mL,10 µg/mL,–,> 40 µg/mL,0.2 µg/mL
"CCCc1ccc(C=C(C)C(=O)c2c(O)cc(C(C)CC/C=C/NC(=O)OC)oc2=O)s1 (mixture of isomers) [APY58, methyl (E)-5-(4-hydroxy-5-((E/Z)-2-methyl-3-(5-propylthiophen-2-yl)acryloyl)-6-oxo-6H-pyran-2-yl)hex-1-enylcarbamate]",80 nM,50 µg/mL,1 µg/mL,50 µg/mL,10 µg/mL,> 50 µg/mL,50 µg/mL,10 µg/mL,–,> 40 µg/mL,0.2 µg/mL
"COC(=O)N/C=C/CCC(C)c1cc(O)c(C(=O)C(C)=Cc2ccc(OCCC(C)(C)C)cc2)c(=O)o1 (mixture of isomers) [APY48, methyl (E)-5-(3-((E/Z)-3-(4-(3,3-dimethylbutoxy)phenyl)-2-methylacryloyl)-4-hydroxy-2-oxo-2H-pyran-6-yl)hex-1-enylcarbamate]",900 nM,> 50 µg/mL,10 µg/mL,10 µg/mL,10 µg/mL,6 µg/mL,50 µg/mL,6 µg/mL,> 50 µg/mL,–,–
"CCCCCc1ccc(C=C(C)C(=O)c2c(O)cc(C(C)CC/C=C/NC(=O)OC)oc2=O)s1 (mixture of isomers) [APY59, methyl (E)-5-(4-hydroxy-5-((E/Z)-2-methyl-3-(5-pentylthiophen-2-yl)acryloyl)-6-oxo-6H-pyran-2-yl)hex-1-enylcarbamate]",10 nM,10 µg/mL,0.3 µg/mL,10 µg/mL,30 µg/mL,6 µg/mL,6 µg/mL,2 µg/mL,–,7 µg/mL,0.2 µg/mL
